{"source": "patent US20230076527A1", "about": "“TREATMENT OF PAROXYSMAL NOCTURNAL HEMOGLOBINURIA” (Apellis Pharmaceuticals, Inc., priority 2020, published 2023)", "key": {"[1]": {"test_system": "patients with PNH", "assay": "PEGASUS post hoc hematologic response categorization", "format": "in vivo, human", "details": "16 weeks", "from_the_text": "Complete response: no transfusions required, stable Hb in the normal range, and no evidence of hemolysis (i.e., LDH ≤1.5× upper limit of normal [ULN], ARC ≤150,000 /µL). Major response: no transfusion, normal Hb, but with evidence of hemolysis (LDH >1.5×ULN and/or ARC >150,000 /µL). Good response: no transfusion, but with chronic mild anemia or evidence of hemolysis. Partial response: chronic moderate anemia and/or occasional transfusions (<3 units/6 months). Minor response: regular transfusions required (3-6 units/6 months). No response: regular and frequent transfusions required (>6 units/6 months)."}, "[2]": {"test_system": "patients with PNH", "assay": "PEGASUS Phase 3 trial, 16-week randomized controlled period: hematologic and fatigue efficacy endpoints", "format": "in vivo, human", "details": "for non-inferiority to eculizumab on absolute reticulocyte count / non-inferiority to eculizumab on transfusion avoidance: key secondary endpoint; for non-inferiority to eculizumab on absolute reticulocyte count: margin 10; for non-inferiority to eculizumab on transfusion avoidance: margin -20%", "from_the_text": "The PEGASUS trial protocol consisted of an 8-week screening period, a 52-week treatment period, and a 12-week follow up period.\nThe treatment period consisted of three parts: a 4-week run-in period, a 16-week Randomized Controlled Period and a 32-week open-label Study Drug only period.\nDuring the Randomized Controlled Period, subjects returned to the clinical site at Weeks 1, 2, 4, 6, 8, 12 and 16 for efficacy and safety assessments.\nThe primary endpoint in the study was an increase in hemoglobin level from baseline to Week 16 (excluding data before the Randomized Controlled Period). Key secondary endpoints included transfusion avoidance, reduction in reticulocyte count, reduction in LDH level, and changes in Functional Assessment of Chronic Illness Therapy (FACIT)-fatigue scale score, Version 4. […] Hierarchical significance testing for secondary efficacy endpoints was gated on the success of the primary efficacy endpoint. Post hoc analyses included hemoglobin stabilization (defined as avoidance of a >1 g/dL decrease from baseline) in the absence of transfusions and hematologic response to treatment.\nThe between-treatment group comparison for the primary efficacy endpoint was performed using a mixed effect model for repeated measures (MMRM) (Mallinckrodt, DID 42:30 (2008)). The model included fixed categorical effects for treatment group, study visit, stratification variables (based on transfusion history and platelet count) and the study visit-bytreatment group interaction, as well as the continuous, fixed covariate of baseline Hb level.\nThe number and percentage of subjects with transfusion avoidance were tabulated by treatment group and compared between treatment groups using a stratified Cochran-Mantel Haenszel (CMH) chi-square test. The treatment difference in percentages and 95% confidence interval for the difference were presented using the stratified method (Miettinen, Statistics in Medicine 4:213-226 (1985)).\nThe change from baseline at Week 16 in reticulocyte count, LDH level and FACIT-fatigue scale score were analyzed using the same methods described for the primary analysis of the primary efficacy endpoint except using their own baseline as a covariate, using the ITT and mITT sets.\nFor any subject who discontinued study treatment, any values collected after discontinuation continued to be used in analyses (Treatment Policy).\nAdditionally, the primary endpoint of hemoglobin change from baseline (before first dose of pegcetacoplan) to week 16 and secondary endpoints (transfusion avoidance, change from baseline at week 16 in absolute reticulocyte count and lactate dehydrogenase) were analyzed by subgroups based on number of packed red blood cell transfusions (<4 vs ≥4) within the 12 months prior to Day -28 and platelet count at screening (<100,000 /mm^3 vs >100,000 /mm^3)."}, "[3]": {"details": "week 16, <4 transfusions stratum"}, "[4]": {"details": "week 16, <100,000 /mm^3 platelet stratum"}, "[5]": {"details": "week 16, censored for transfusion"}, "[6]": {"details": "week 16, ≥4 transfusions stratum"}, "[7]": {"details": "week 16, ≥100,000 /mm^3 platelet stratum"}}, "note": "“And” between values parts separate entries of the source, which are not always exact repeats. Equal values may be shown once.", "data": [{"substance": "Poly(oxy-1,2-ethanediyl), α-hydro-ω-hydroxy-, 15,15ʹ -diester with N-acetyl-L-isoleucyl-L-cysteinyl-L-valyl-1-methyl-L-tryptophyl-L-glutaminyl-L-α-aspartyl-L-tryptophylglycyl-L-alanyl-L-histidyl-L-arginyl-L-cysteinyl-L-threonyl-2-[2-(2-aminoethoxy)ethoxy]acetyl-N^6-carboxy-L-lysinamide cyclic (2-->12)-(disulfide) [pegcetacoplan]", "values": [{"measurement": "complete hematologic responses", "setting": "[1]; ITT", "result": 39, "unit": "%"}, {"measurement": "good hematologic responses", "setting": "[1]; ITT", "result": 31.7, "unit": "%"}, {"measurement": "minor hematologic responses", "setting": "[1]; ITT", "result": 4.9, "unit": "%"}, {"measurement": "no hematologic response", "setting": "[1]; ITT", "result": 0, "unit": "%"}, {"measurement": "partial hematologic responses", "setting": "[1]; ITT", "result": 14.6, "unit": "%"}, {"measurement": "patients achieving at least a good hematological response", "setting": "[1]; 29/41 pegcetacoplan, 2/39 eculizumab", "result": 70.7, "unit": "%"}, {"measurement": "patients achieving at least a three-point improvement in FACIT-fatigue score", "setting": "[2]; 16 weeks", "result": 73, "unit": "%"}, {"measurement": "patients achieving reticulocyte normalization", "setting": "[2]; 16 weeks, 30-120 × 10^9 cells/L", "result": 78, "unit": "%"}, {"measurement": "patients achieving LDH normalization", "setting": "[2]; 16 weeks, normal range 113-226 U/L", "result": 71, "unit": "%"}, {"measurement": "transfusion avoidance, adjusted risk difference versus eculizumab", "setting": "[2]; <4 transfusions group, 95% CI 26.2%-81.3%", "result": 53.8, "unit": "%"}, {"measurement": "FACIT-fatigue score, adjusted mean change from baseline to Week 16", "setting": "[2]; MMRM", "result": 9.2}, {"measurement": "absolute reticulocyte count, adjusted mean decrease from baseline to week 16", "setting": "[2]; baseline 217×10^9 /L", "result": "1.35e+11", "unit": "L⁻¹"}, {"measurement": "non-inferiority to eculizumab on absolute reticulocyte count", "setting": "[2]", "result": "Non-inferiority was met"}, {"measurement": "non-inferiority to eculizumab on absolute reticulocyte count", "setting": "[2]; listed as Pegcetacoplan", "result": "met non-inferiority"}, {"measurement": "non-inferiority to eculizumab on transfusion avoidance", "setting": "[2]", "result": "Non-inferiority was met"}, {"measurement": "non-inferiority to eculizumab on transfusion avoidance", "setting": "[2]; listed as Pegcetacoplan", "result": "met non-inferiority"}, {"measurement": "subjects who required transfusions post randomization", "setting": "[2]; out of 41 (pegcetacoplan group), out of 39 (eculizumab group)", "result": 6, "unit": "subjects"}, {"measurement": "proportion of transfusion-free patients", "setting": "[2]; over 16 weeks, <4 transfusions within 12 months prior to Day -28", "result": 85, "unit": "%"}, {"measurement": "transfusion avoidance (transfusion-free patients)", "setting": "[2]; over 16 weeks, all patients", "result": "85.4% and 85%"}, {"measurement": "proportion of transfusion-free patients", "setting": "[2]; over 16 weeks, platelet stratum <100,000 /mm^3", "result": 83.3, "unit": "%"}, {"measurement": "proportion of transfusion-free patients", "setting": "[2]; over 16 weeks, platelet stratum ≥100,000 /mm^3", "result": 86.2, "unit": "%"}, {"measurement": "proportion of transfusion-free patients", "setting": "[2]; over 16 weeks, ≥4 transfusions within 12 months prior to Day -28", "result": "85.7% and 86%"}, {"measurement": "transfusion avoidance, adjusted risk difference versus eculizumab", "setting": "[2]; overall patients, 95% CI 48.3%-76.8%", "result": 62.5, "unit": "%"}, {"measurement": "hemoglobin higher than the eculizumab arm", "setting": "[2]; week 16", "result": 53, "unit": "%"}, {"measurement": "mean hemoglobin change from baseline regardless of baseline platelet count strata", "setting": "[2]; week 16", "result": "significantly increased"}, {"measurement": "LDH LS mean change from baseline", "setting": "[2]; [3]", "result": -52.31, "unit": "U/L"}, {"measurement": "absolute reticulocyte count LS mean change from baseline", "setting": "[2]; [3]", "result": "-152.59 × 10^9 cells/L"}, {"measurement": "LDH LS mean change from baseline", "setting": "[2]; [4]", "result": -73.14, "unit": "U/L"}, {"measurement": "absolute reticulocyte count LS mean change from baseline", "setting": "[2]; [4]", "result": "-147.17 × 10^9 cells/L"}, {"measurement": "adjusted mean hemoglobin change from baseline", "setting": "[2]; week 16, all patients, baseline 8.7 g/dL, post-transfusion data excluded", "result": 2.4, "unit": "g/dL"}, {"measurement": "proportion of patients achieving hemoglobin normalization", "setting": "[2]; [5]", "result": 34, "unit": "%"}, {"measurement": "proportion of patients achieving ≥2 g/dL improvement in hemoglobin", "setting": "[2]; [5]", "result": 61, "unit": "%"}, {"measurement": "proportion of patients achieving hemoglobin stabilization", "setting": "[2]; week 16, censored for transfusion, avoidance of >1 g/dL decrease from baseline", "result": 85, "unit": "%"}, {"measurement": "adjusted mean hemoglobin change from baseline", "setting": "[2]; week 16, fewer than 4 transfusions within 12 months prior to Day -28, baseline 8.9 g/dL", "result": 2.97, "unit": "g/dL"}, {"measurement": "indirect bilirubin level", "setting": "[2]; week 16, including post-transfusion data", "result": 13.8, "unit": "µmol/L"}, {"measurement": "non-inferiority to eculizumab in the change from baseline in LDH", "setting": "[2]; week 16, margin 20", "result": "did not demonstrate non-inferiority"}, {"measurement": "mean FACIT-fatigue score", "setting": "[2]; week 16, observed data, baseline 32.2 (pegcetacoplan), 31.6 (eculizumab)", "result": "41.8 (SD 9.61)"}, {"measurement": "improvement in adjusted means of hemoglobin versus eculizumab", "setting": "[2]; week 16, p<0.0001, MMRM", "result": 3.8, "unit": "g/dL"}, {"measurement": "LDH LS mean change from baseline", "setting": "[2]; [6]", "result": -54.99, "unit": "U/L"}, {"measurement": "absolute reticulocyte count LS mean change from baseline", "setting": "[2]; [6]", "result": "-124.75 × 10^9 cells/L"}, {"measurement": "LDH LS mean change from baseline", "setting": "[2]; [7]", "result": -41.96, "unit": "U/L"}, {"measurement": "absolute reticulocyte count LS mean change from baseline", "setting": "[2]; [7]", "result": "-137.28 × 10^9 cells/L"}, {"measurement": "LDH adjusted mean change from baseline", "setting": "[2]; week 16, baseline 258 U/L (pegcetacoplan), 309 U/L (eculizumab)", "result": -15, "unit": "U/L"}, {"measurement": "transfusion avoidance, adjusted risk difference versus eculizumab", "setting": "[2]; ≥4 transfusions group, 95% CI 64.2%-98.5%", "result": 81.4, "unit": "%"}]}]}
